# Source: patent US20080090805A1, “CB-1 MODULATING COMPOUNDS AND THEIR USE” (ACADIA PHARMACEUTICALS INC., priority 2005, published 2008)
# Read-outs that look alike come from different tables or passages of the source.
# Key:
# native CB1 receptors = native CB1 receptors (Rattus norvegicus, UniProt P20272); test: CB1 receptor rat binding assay ([3H]SR141716A, rat brain membranes)
# CB1 (mutant) = CB1 (mutant) (Homo sapiens, UniProt P21554); test: R-SAT functional receptor assay, CB1 (mutant, truncated after amino acid 417); type: cell-based; conditions: R-SAT CB1; for IC50: receptor form (mutant or wild-type) not stated; for Emax: receptor form not stated, relative to SR141716 (100%), read-out: % Inhibition
# [1] = rat brain membranes, [3H]SR141716A
# [2] = rat brain membranes, [3H]SR141716A, read-out: Binding rat pKi (converted)
# [3] = rat brain membranes, 3 nM [3H]SR141716A, read-out: Rat Brain pKi (converted)
# [4] = Appendix A, read-out: pIC50 (converted)
# Sequence of CB1 (mutant) (P21554 1-417, change not shown): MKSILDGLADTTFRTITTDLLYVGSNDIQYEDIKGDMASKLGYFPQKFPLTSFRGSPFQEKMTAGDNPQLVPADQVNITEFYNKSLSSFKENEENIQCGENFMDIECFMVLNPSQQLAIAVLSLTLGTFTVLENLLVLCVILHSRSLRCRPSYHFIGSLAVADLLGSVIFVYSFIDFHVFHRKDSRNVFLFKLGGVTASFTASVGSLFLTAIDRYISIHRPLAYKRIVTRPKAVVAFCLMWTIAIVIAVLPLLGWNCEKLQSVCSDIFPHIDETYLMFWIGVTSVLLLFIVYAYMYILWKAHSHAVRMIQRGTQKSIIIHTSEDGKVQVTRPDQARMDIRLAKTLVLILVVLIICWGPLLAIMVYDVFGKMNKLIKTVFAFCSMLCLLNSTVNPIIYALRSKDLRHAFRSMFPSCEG
# Sequence of native CB1 receptors (P20272 whole entry, the tested form may be a part): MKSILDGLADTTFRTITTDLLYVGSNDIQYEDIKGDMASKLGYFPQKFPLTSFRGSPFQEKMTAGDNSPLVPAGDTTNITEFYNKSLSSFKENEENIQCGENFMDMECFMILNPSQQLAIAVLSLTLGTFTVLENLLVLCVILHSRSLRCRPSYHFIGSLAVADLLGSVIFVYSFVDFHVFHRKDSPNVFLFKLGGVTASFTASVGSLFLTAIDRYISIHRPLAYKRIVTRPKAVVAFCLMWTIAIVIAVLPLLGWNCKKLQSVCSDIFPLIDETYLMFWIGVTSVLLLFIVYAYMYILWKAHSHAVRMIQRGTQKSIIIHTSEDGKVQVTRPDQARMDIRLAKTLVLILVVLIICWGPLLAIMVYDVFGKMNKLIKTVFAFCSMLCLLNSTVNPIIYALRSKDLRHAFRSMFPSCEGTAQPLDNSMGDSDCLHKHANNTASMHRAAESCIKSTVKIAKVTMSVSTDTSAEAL
SMILES,Binding rat Inh % (native CB1 receptors; [1]) [%],Ki (native CB1 receptors; [2]) [nM],Emax (CB1 (mutant); Appendix A) [%],other results
O=C(NC1CCC(F)(F)CC1)c1ccc2c(c1)N=C(c1ccc(Cl)cc1F)c1ccccc1S2,78,1,,
O=C(NC1CCC(F)(F)CC1)c1ccc2c(c1)N=C(c1ccc(Cl)cc1)c1ccccc1S2,90,2.51,,
CCCCNC(=O)c1ccc2c(c1)N=C(c1ccc(F)c(F)c1)c1ccccc1S2,102,2.51,,
CC(NC(=O)c1ccc2c(c1)N=C(N1CCCCC1)c1ccccc1S2)c1ccccc1 (centres unmarked),,20,,
O=C(NC1CCC(F)(F)CC1)c1ccc2c(c1)N=C(c1ccsc1)c1ccccc1S2,92,3.16,,
CCCC1=Nc2cc(C(=O)NC(C)C34C[C@H]5C[C@@H](C3)C[C@@H](C4)C5)ccc2Sc2ccccc21 (some centres unmarked),,25.1,,
O=C(NN1CCCCC1)c1ccc2c(c1)N=C(c1cccc(Cl)c1)c1ccccc1O2,,39.8,,
O=C(NCc1cccc(Cl)c1)c1ccc2c(c1)N=C(C1CCCCC1)c1cc(F)ccc1S2,,10,,
CCC1=Nc2cc(C(=O)NCCc3ccc(OC)c(OC)c3)ccc2Sc2ccccc21,,63.1,,
O=C(NN1CCCCC1)c1ccc2c(c1)N=C(C1CCCCC1)c1ccccc1O2,,,,Ki (native CB1 receptors): 63.1 nM
O=C(NN1CCCCC1)c1ccc2c(c1)N=C(c1ccc(Cl)cc1)c1ccccc1O2,,79.4,,
O=C(NNC(=O)c1ccc2c(c1)N=C(c1cccc(Br)c1)c1ccccc1S2)c1ccccc1,73,100,,
Cc1ccc(N2CCN(C(=O)c3ccc4c(c3)N=C(Cl)c3ccccc3S4)CC2)c(C)c1 [Example 12],,,,Ki (native CB1 receptors; [3]): 251 nM
Cc1ccc(N2CCN(C(=O)c3ccc4c(c3)N=C(c3ccc(Cl)cc3)c3ccccc3S4)CC2)c(C)c1 [Example 19],,,,Ki (native CB1 receptors; [3]): 50.1 nM
C[C@@H]1CCC[C@H](C)N1NC(=O)c1ccc2c(c1)N=C(c1ccc(Cl)cc1)c1ccccc1S2 [drawing 1133],,,96,IC50 (CB1 (mutant); [4]): 39.8 nM
O=C(NCCc1ccncc1)c1ccc2c(c1)N=C(c1ccc(Cl)cc1)c1ccccc1S2 [drawing 1135],,,116,IC50 (CB1 (mutant); [4]): 39.8 nM
O=C(NC1CCCC1)c1ccc2c(c1)N=C(c1ccc(Cl)s1)c1ccccc1S2 [drawing 1139],,,86,IC50 (CB1 (mutant); [4]): 39.8 nM
Cc1ccc(CNC(=O)c2ccc3c(c2)N=C(c2ccc(Cl)cc2)c2ccccc2S3)o1 [drawing 1141],,,93,"IC50 (CB1 (mutant); pIC50, Appendix A): 39.8 nM"
CCOCCNC(=O)c1ccc2c(c1)N=C(c1ccc(Br)cc1)c1ccccc1S2 [drawing 1143],,,85,IC50 (CB1 (mutant); [4]): 39.8 nM
O=C(NCCc1ccccn1)c1ccc2c(c1)N=C(c1ccc(F)cc1)c1ccccc1S2 [drawing 1145],,,101,IC50 (CB1 (mutant); [4]): 39.8 nM

SMILES,Binding rat Inh % (native CB1 receptors; [1]) [%],Ki (native CB1 receptors; [2]) [nM],Emax (CB1 (mutant); Appendix A) [%],other results
CC(NC(=O)c1ccc2c(c1)N=C(c1ccccc1)c1ccccc1S2)c1ccccc1 (centres unmarked) [drawing 1147],,,85,IC50 (CB1 (mutant); [4]): 39.8 nM
C[C@@H]1CCC[C@H](C)N1NC(=O)c1ccc2c(c1)N=C(c1ccccc1F)c1ccccc1S2 [drawing 1149],,,103,IC50 (CB1 (mutant); [4]): 39.8 nM
COc1ccc(C2=Nc3cc(C(=O)NC4CCCCC4)ccc3Sc3ccccc32)cc1 [drawing 1153],,,115,IC50 (CB1 (mutant); [4]): 39.8 nM
CC(C)NC(=O)c1ccc2c(c1)N=C(c1cccc(F)c1)c1ccccc1S2 [drawing 1155],,,104,IC50 (CB1 (mutant); [4]): 39.8 nM
O=C(NCc1ccccn1)c1ccc2c(c1)N=C(c1ccc(Cl)cc1)c1ccccc1S2 [drawing 1157],,,125,IC50 (CB1 (mutant); [4]): 39.8 nM
O=C(c1ccc2c(c1)N=C(c1ccc(F)cc1)c1ccccc1S2)N1CCCCC1 [drawing 1163],,,90,"IC50 (CB1 (mutant); pIC50, Appendix A): 39.8 nM"
CCCCNC(=O)c1ccc2c(c1)N=C(c1ccc(Cl)cc1Cl)c1ccccc1S2 [drawing 1165],,,98,IC50 (CB1 (mutant); [4]): 39.8 nM
O=C(NCc1ccc(Cl)cc1Cl)c1ccc2c(c1)N=C(c1ccccc1)c1ccccc1S2 [drawing 1167],,,91,IC50 (CB1 (mutant); [4]): 39.8 nM
CC(CNC(=O)c1ccc2c(c1)N=C(N1CCCCC1)c1cc(F)ccc1S2)c1ccccc1 (centres unmarked) [drawing 1171],,,102,IC50 (CB1 (mutant); [4]): 39.8 nM
CC(C)CNC(=O)c1ccc2c(c1)N=C(c1ccc(Cl)cn1)c1ccc(Cl)cc1S2 [drawing 1172],,,27,
CC(CNC(=O)c1ccc2c(c1)N=C(c1ccc(Cl)cc1)c1cc(F)ccc1S2)c1ccccc1 (centres unmarked) [drawing 1173],,,110,IC50 (CB1 (mutant); [4]): 39.8 nM
N#Cc1ccc(C2=Nc3cc(C(=O)NNCc4ccccc4)ccc3Sc3ccccc32)cc1 [drawing 1174],,,58,
O=C(NCCc1cccc(Cl)c1)c1ccc2c(c1)N=C(c1ccc(F)cc1)c1ccccc1S2 [drawing 1179],,12.6,,
O=C(NCc1cccnc1)c1ccc2c(c1)N=C(c1ccc(Br)cc1)c1ccccc1S2 [drawing 1180],72,12.6,,
O=C(NCc1cccc(Cl)c1)c1ccc2c(c1)N=C(N1CCCCC1)c1cc(F)ccc1S2 [drawing 1181],,12.6,,
Cc1ccsc1C1=Nc2cc(C(=O)NN3CCCCC3)ccc2Sc2ccccc21 [drawing 1182],59,12.6,,
CCCCNC(=O)c1ccc2c(c1)N=C(c1ccc(Cl)cc1)c1ccc(Cl)cc1S2 [drawing 1187],94,12.6,,
CC(C)CCNC(=O)c1ccc2c(c1)N=C(c1ccccc1Cl)c1ccccc1S2 [drawing 1188],116,12.6,,
CCCNC(=O)c1ccc2c(c1)N=C(c1cccc(Cl)c1)c1ccccc1S2 [drawing 1189],86,12.6,,
O=C(Cc1ccccc1)NNC(=O)c1ccc2c(c1)N=C(c1ccc(F)cc1)c1ccccc1S2 [drawing 1190],65,12.6,,

SMILES,Binding rat Inh % (native CB1 receptors; [1]) [%],Ki (native CB1 receptors; [2]) [nM],Emax (CB1 (mutant); Appendix A) [%],other results
O=C(NCCc1ccc(Cl)cc1)c1ccc2c(c1)N=C(N1CCC(F)CC1)c1ccccc1S2 [drawing 1195],,12.6,,
CC(CNC(=O)c1ccc2c(c1)N=C(c1cccc(Cl)c1)c1cc(F)ccc1S2)c1ccccc1 (centres unmarked) [drawing 1196],,12.6,,
CC(CNC(=O)c1ccc2c(c1)N=C(c1ccccc1)c1ccccc1S2)c1ccccc1 (centres unmarked) [drawing 1197],,12.6,,
Cc1ccsc1C1=Nc2cc(C(=O)NCCC(F)(F)F)ccc2Sc2ccccc21 [drawing 1198],103,12.6,,
CC(C)CNC(=O)c1ccc2c(c1)N=C(c1ccc(Cl)s1)c1ccccc1S2 [drawing 1201],,,,Binding rat pKi (native CB1 receptors; [1]): 8.6
O=C(NCCc1cccnc1)c1ccc2c(c1)N=C(c1ccc(F)cc1)c1ccccc1S2 [drawing 1203],96,12.6,,
O=C(NCc1ccc(Cl)cc1Cl)c1ccc2c(c1)N=C(c1ccccc1)c1ccccc1S2 [drawing 1204],,12.6,,
CCCCNC(=O)c1ccc2c(c1)N=C(c1ccc(Cl)cc1)c1ccccc1[S+]2[O-] (centres unmarked) [drawing 1205],,12.6,,
O=C(NCCCc1ccccc1)c1ccc2c(c1)N=C(c1ccccc1F)c1ccccc1S2 [drawing 1206],,12.6,,
O=C(NCc1ccc(Cl)cc1Cl)c1ccc2c(c1)N=C(c1ccc(F)cc1)c1ccccc1S2 [drawing 1211],,12.6,,
O=C(NCc1ccc(F)cc1)c1ccc2c(c1)N=C(N1CCCCC1)c1ccccc1S2 [drawing 1212],,12.6,,
CC(CNC(=O)c1ccc2c(c1)N=C(c1ccccc1F)c1ccccc1S2)c1ccccc1 (centres unmarked) [drawing 1214],,15.8,,
O=C(NCc1ccccc1)c1ccc2c(c1)N=C(c1ccccc1)c1ccccc1S2 [drawing 1219],,15.8,,
O=C(NCCc1ccncc1)c1ccc2c(c1)N=C(c1ccc(F)cc1)c1ccccc1S2 [drawing 1220],103,15.8,,
O=C(NCc1cccnc1)c1ccc2c(c1)N=C(c1cccc(F)c1)c1ccccc1S2 [drawing 1221],84,15.8,,
O=C(NCCc1cccc(Cl)c1)c1ccc2c(c1)N=C(N1CCCCC1)c1ccccc1S2 [drawing 1222],,15.8,,
Cc1ccc(CNC(=O)c2ccc3c(c2)N=C(c2ccc(Cl)s2)c2ccccc2S3)o1 [drawing 1223],106,0.501,,
O=C(NC1CCC(F)(F)CC1)c1ccc2c(c1)N=C(c1ccc(Cl)s1)c1ccccc1S2 [drawing 1224],107,0.631,,
Cc1ccsc1C1=Nc2cc(C(=O)NCCCC(F)(F)F)ccc2Sc2ccccc21 [drawing 1225],109,0.631,,
O=C(NCCCC(F)(F)F)c1ccc2c(c1)N=C(c1ccc(Cl)cc1)c1ccccc1S2 [drawing 1226],89,0.631,,
